PubChem BioAssay AID248 (DTP/NCI, 2004)
“And” between values parts separate entries of the source, which are not always exact repeats. Identical values can stand only once. Inconclusive results and toxic doses are left out. Rule as the data show it: active = T/C of 150% or more; inactive = T/C below 125%.

Test system: L1210 leukemia ip in BDF1 mice, survival T/C
Assay: NCI In Vivo Anticancer Drug Screen. Data for tumor model L1210 Leukemia (intraperitoneal) in B6D2F1 (BDF1) mice
Settings: endpoint: mean survival time, higher = longer survival
Procedure, shortened: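 In this screen, tumor-bearing mice given compound are compared to those given vehicle, and their survival values are reported as a treated-to-control quotient.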

[1] = dose: 400.0 mg/kg/injection, schedule: Q01DX001 (ip), vehicle: carboxymethylcellulose (CMC)
[2] = dose: 100.0 mg/kg/injection, schedule: Q01DX009 (ip), vehicle: Klucel (hydroxypropylcellulose) (HPC)
[3] = dose: 200.0 mg/kg/injection, schedule: Q01DX009 (ip), vehicle: Klucel (hydroxypropylcellulose) (HPC)
[4] = dose: 400.0 mg/kg/injection, schedule: Q01DX009 (ip), vehicle: Klucel (hydroxypropylcellulose) (HPC)
[5] = dose: 100.0 mg/kg/injection, schedule: Q04DX003 (ip), vehicle: saline with Tween-80
[6] = dose: 200.0 mg/kg/injection, schedule: Q04DX003 (ip), vehicle: saline with Tween-80
[7] = dose: 75.0 mg/kg/injection, schedule: Q04DX003 (ip), vehicle: Klucel (hydroxypropylcellulose) (HPC)
[8] = dose: 100.0 mg/kg/injection, schedule: Q01DX001 (ip), vehicle: Klucel (hydroxypropylcellulose) (HPC)
[9] = dose: 150.0 mg/kg/injection, schedule: Q04DX003 (ip), vehicle: Klucel (hydroxypropylcellulose) (HPC)
[10] = dose: 200.0 mg/kg/injection, schedule: Q01DX001 (ip), vehicle: Klucel (hydroxypropylcellulose) (HPC)
[11] = dose: 300.0 mg/kg/injection, schedule: Q04DX003 (ip), vehicle: Klucel (hydroxypropylcellulose) (HPC)
[12] = dose: 400.0 mg/kg/injection, schedule: Q01DX001 (ip), vehicle: Klucel (hydroxypropylcellulose) (HPC)
[13] = dose: 100.0 mg/kg/injection, schedule: Q04DX003 (ip), vehicle: Klucel (hydroxypropylcellulose) (HPC)
[14] = dose: 200.0 mg/kg/injection, schedule: Q04DX003 (ip), vehicle: Klucel (hydroxypropylcellulose) (HPC)
[15] = dose: 400.0 mg/kg/injection, schedule: Q04DX003 (ip), vehicle: Klucel (hydroxypropylcellulose) (HPC)
[16] = dose: 100.0 mg/kg/injection, schedule: Q04DX002 (ip), vehicle: Klucel (hydroxypropylcellulose) (HPC)
[17] = dose: 200.0 mg/kg/injection, schedule: Q04DX002 (ip), vehicle: Klucel (hydroxypropylcellulose) (HPC)
[18] = dose: 400.0 mg/kg/injection, schedule: Q04DX002 (ip), vehicle: Klucel (hydroxypropylcellulose) (HPC)
[19] = dose: 75.0 mg/kg/injection, schedule: Q01DX001 (ip), vehicle: saline
[20] = dose: 150.0 mg/kg/injection, schedule: Q01DX001 (ip), vehicle: saline
[21] = dose: 300.0 mg/kg/injection, schedule: Q01DX001 (ip), vehicle: saline

Measured: T/C

O=c1ccc2cc(OC3OC(CO)C(O)C(O)C3O)c(O)cc2o1 (stereo unspecified)
inactive: dose: 62.5 mg/kg/injection, schedule: Q01DX015 (ip), vehicle: carboxymethylcellulose (CMC) 95 % of control | dose: 125.0 mg/kg/injection, schedule: Q01DX015 (ip), vehicle: carboxymethylcellulose (CMC) 105 % of control | dose: 250.0 mg/kg/injection, schedule: Q01DX015 (ip), vehicle: carboxymethylcellulose (CMC) 100 % of control | [1] 111 % of control | dose: 600.0 mg/kg/injection, schedule: Q01DX001 (ip), vehicle: carboxymethylcellulose (CMC) 90 % of control | dose: 800.0 mg/kg/injection, schedule: Q01DX001 (ip), vehicle: carboxymethylcellulose (CMC) 92 % of control | dose: 1000.0 mg/kg/injection, schedule: Q01DX001 (ip), vehicle: carboxymethylcellulose (CMC) 101 % of control

C#CCN1CCCC1
inactive: dose: 12.5 mg/kg/injection, schedule: Q04DX003 (ip), vehicle: saline 92 % of control | dose: 25.0 mg/kg/injection, schedule: Q04DX003 (ip), vehicle: saline 92 % of control | dose: 50.0 mg/kg/injection, schedule: Q04DX003 (ip), vehicle: saline 95 % of control

CC(C)C[C@H](O)C(=O)O
inactive: dose: 33.0 mg/kg/injection, schedule: Q01DX009 (ip), vehicle: saline 98 % of control | dose: 50.0 mg/kg/injection, schedule: Q01DX009 (ip), vehicle: saline 98 % of control | dose: 75.0 mg/kg/injection, schedule: Q01DX009 (ip), vehicle: saline 98 % of control | dose: 100.0 mg/kg/injection, schedule: Q01DX009 (ip), vehicle: saline 97 % of control | dose: 100.0 mg/kg/injection, schedule: Q04DX003 (ip), vehicle: saline 98 % of control | dose: 200.0 mg/kg/injection, schedule: Q01DX009 (ip), vehicle: saline 101 % of control | dose: 200.0 mg/kg/injection, schedule: Q04DX003 (ip), vehicle: saline 100 % of control

Clc1cccc(N=Cc2ccc3c(c2)OCO3)c1Cl
inactive: [2] 97 % of control | [3] 94 % of control | [4] 100 % of control

CSCSCC(NS(=O)(=O)c1ccc(C)cc1)C(=O)O (stereo unspecified)
inactive: dose: 100.0 mg/kg/injection, schedule: Q01DX009 (ip), vehicle: saline with Tween-80 109 % of control | [5] 107 % of control | dose: 200.0 mg/kg/injection, schedule: Q01DX009 (ip), vehicle: saline with Tween-80 109 % of control | [6] 96 % of control | dose: 400.0 mg/kg/injection, schedule: Q01DX009 (ip), vehicle: saline with Tween-80 104 % of control | dose: 400.0 mg/kg/injection, schedule: Q04DX003 (ip), vehicle: saline with Tween-80 105 % of control

COc1cc([N+](=O)[O-])c(C)c(Br)c1N
inactive: dose: 100.0 mg/kg/injection, schedule: Q01DX001 (ip), vehicle: carboxymethylcellulose (CMC) 100 % of control | dose: 200.0 mg/kg/injection, schedule: Q01DX001 (ip), vehicle: carboxymethylcellulose (CMC) 100 % of control | [1] 96 % of control

COC(=O)C1C(=C(c2ccccc2)c2ccccc2)C1c1ccccc1 (stereo unspecified)
inactive: [7] 96 % of control | [8] 95 % of control | dose: 100.0 mg/kg/injection, schedule: Q01DX001 (ip), vehicle: steriod suspending solution 93 % of control | [9] 94 % of control | [10] 95 % of control | dose: 200.0 mg/kg/injection, schedule: Q01DX001 (ip), vehicle: steriod suspending solution 98 % of control | [11] 100 % of control | [12] 103 % of control | dose: 400.0 mg/kg/injection, schedule: Q01DX001 (ip), vehicle: steriod suspending solution 95 % of control

C1CCC(C2CCCC2)C1
inactive: dose: 100.0 mg/kg/injection, schedule: Q04DX002 (ip), vehicle: saline with Tween-80 100 % of control | dose: 200.0 mg/kg/injection, schedule: Q04DX002 (ip), vehicle: saline with Tween-80 89 % of control | dose: 400.0 mg/kg/injection, schedule: Q04DX002 (ip), vehicle: saline with Tween-80 110 % of control

Cc1cccc(NS(=O)(=O)c2ccccc2)c1C
inactive: [2] 91 % of control | [13] 97 % of control | [3] 91 % of control | [14] 93 % of control | [4] 98 % of control | [15] 98 % of control

O=C1C=CC(=O)C2C1C1(Cl)CC2(Cl)C(Cl)=C1Cl (stereo unspecified)
inactive: dose: 6.25 mg/kg/injection, schedule: Q04DX002 (ip), vehicle: Klucel (hydroxypropylcellulose) (HPC) 100 % of control | dose: 12.5 mg/kg/injection, schedule: Q04DX002 (ip), vehicle: Klucel (hydroxypropylcellulose) (HPC) 95 % of control | dose: 25.0 mg/kg/injection, schedule: Q04DX002 (ip), vehicle: Klucel (hydroxypropylcellulose) (HPC) 100 % of control and 108 % of control

c1ccc(P(CN(CCN(CP(c2ccccc2)c2ccccc2)CP(c2ccccc2)c2ccccc2)CP(c2ccccc2)c2ccccc2)c2ccccc2)cc1
inactive: dose: 100.0 mg/kg/injection, schedule: Q04DX002 (sc), vehicle: olive oil, sesame oil, peanut oil 100 % of control | dose: 200.0 mg/kg/injection, schedule: Q04DX002 (sc), vehicle: olive oil, sesame oil, peanut oil 110 % of control | dose: 400.0 mg/kg/injection, schedule: Q04DX002 (sc), vehicle: olive oil, sesame oil, peanut oil 107 % of control

O=C(/C=C/C(=O)c1ccccc1)c1ccccc1
inactive: [7] 98 % of control | [16] 98 % of control | [9] 97 % of control | [17] 106 % of control | [11] 104 % of control

Cc1ccc(C)n1CCn1c(C)ccc1C
inactive: [2] 91 % of control | [16] 88 % of control | [3] 94 % of control | [17] 93 % of control | [4] 91 % of control | [18] 96 % of control

O=C(Nc1c(Oc2ccc(Cl)c(Cl)c2)ccc(Cl)c1S(=O)(=O)O)Nc1c(Oc2ccc(Cl)c(Cl)c2)ccc(Cl)c1S(=O)(=O)O
inactive: [19] 101 % of control | [20] 99 % of control | [21] 96 % of control

Cc1ccc(S(=O)(=O)NN=C2CCCCC2)cc1
inactive: [19] 90 % of control | [20] 90 % of control | [21] 90 % of control

O=c1ccc(=O)n(-c2ccc(Cl)cc2)[nH]1
inactive: dose: 50.0 mg/kg/injection, schedule: Q04DX003 (ip), vehicle: saline with Tween-80 103 % of control | [5] 104 % of control | [6] 98 % of control

CCOC(=O)C1C(C)NC(=S)NC1c1ccccc1 (stereo unspecified)
inactive: [16] 90 % of control | [17] 93 % of control | [18] 93 % of control

CS(=O)(=O)OC1CCCCCCC1OS(C)(=O)=O (stereo unspecified)
inactive: dose: 50.0 mg/kg/injection, schedule: Q04DX003 (ip), vehicle: Klucel (hydroxypropylcellulose) (HPC) 103 % of control | [8] 98 % of control | [13] 104 % of control | [10] 98 % of control | [14] 98 % of control | [12] 104 % of control | [15] 104 % of control

Cc1ccc(N=Nc2ccc(C)cc2NC(=O)c2ccc(Cl)c(Cl)c2)cc1
inactive: [16] 120 % of control | [17] 103 % of control | [18] 97 % of control

CCSc1ncnc2c1nnn2C1OC(CO)C(O)C1O (stereo unspecified)
inactive: dose: 12.5 mg/kg/injection, schedule: Q01DX001 (ip), vehicle: saline with Tween-80 100 % of control | dose: 25.0 mg/kg/injection, schedule: Q01DX001 (ip), vehicle: saline with Tween-80 102 % of control | dose: 50.0 mg/kg/injection, schedule: Q01DX001 (ip), vehicle: saline with Tween-80 97 % of control | dose: 100.0 mg/kg/injection, schedule: Q01DX001 (ip), vehicle: saline with Tween-80 103 % of control | dose: 200.0 mg/kg/injection, schedule: Q01DX001 (ip), vehicle: saline with Tween-80 108 % of control
